Source: patent US12527849B2, “Apparatus for determining administration form of a composition of an engineered virus-based nanoparticle for a treatment of an autoimmune condition” (Diamante Srl, priority 2021, dated 2026)

How the values were obtained:
IL-6 = experiment: Pro-inflammatory cytokines in sera of CIA Collagen mice (ELISA, day 58): IL-6; assay type: in vivo; settings: Dexamethasone oral 1 mg/kg, 20 times between day 28 and 57
Experimental: (§1) Critical administration 124 disclosed herein is further described below. Q5D represents administration 5 days a part. TBSV·pLIp1 and wt TBSV shown in Table 1 may include liquid form that are not sterile and stored in −20° C. TBSV·pLIp1 may be given at the dose of 50 μG/100 μL Male DBA/1J mice (8 weeks; Envigo, Italy) may be used for these studies. Mice may be housed in individual cages (two for each group) and maintained under a 12:12 light-dark cycle at 21° C.±1° C. and 50%±5% humidity. The animals may be acclimated to their environment for 1 week and had ad libitum access to tap water and standard rodent diet. All animal experiments may be complied with regulations in Italy (D.M. 116192), Europe (O.J of E.C. L 358/112/18/1986), and the United States (Animal Welfare Assurance Number A5594-01, Department of Health and Human Services, USA). […] Arthritis was assessed by using qualitative severity score system and hind paw volume (mL) measured by a plethysmometer on day 20, 22, 24, 26, 28, 30, 32, 34, 36, 38, 40, 42, 44, 46 48, 50, 52, 54, 56 and 58. Body weight was recorded on day 0, 6, 13, 16, 18, 20, 22, 24, 26, 28, 30, 32, 34, 36, 38, 40, 42, 44, 46, 50, 52, 54, 56 and 58. […]

IFN-γ = experiment: Pro-inflammatory cytokines in sera of CIA Collagen mice (ELISA, day 58): IFN-γ; assay type: in vivo; settings: Dexamethasone oral 1 mg/kg, 20 times between day 28 and 57
Experimental: as §1

C[C@@H]1C[C@H]2[C@@H]3CCC4=CC(=O)C=C[C@]4(C)[C@@]3(F)[C@@H](O)C[C@]2(C)[C@@]1(O)C(=O)CO [Dexamethasone, dexamethasone]
IL-6, % of reduction vs CIA Collagen (IL-6): 40.13%
IFN-γ, % of reduction vs CIA Collagen (IFN-γ): 37.39%
